Measured values taken from patent US12187707B2, “Pharmaceutical formulations of N-(2-(2-(dimethylamino)ethoxy)-4-methoxy-5-((4-(1-methyl-1H-indol-3-yl)pyrimidin-2-yl)amino)phenyl)acrylaminde and salts thereof” (Beta Pharma, Inc., priority 2017, dated 2025).

Assay: Stability testing of Formulation 1 and 1·Ms by HPLC (assay and total related substances) after storage in a stability chamber
Type: physicochemical
Method: Microcrystalline cellulose (392.43 mg), dicalcium phosphate (735.35 mg), sodium starch glycolate (45.09 mg), silicon dioxide (15.03 mg), and magnesium stearate (15.03 mg) were combined and blended with a vortex mixer in the amounts and proportions indicated in Table 1. The resulting mixture was filtered through a #35 mesh sieve to give Mixture A. A 20.05 mg portion of Mixture A was combined with 5.0 mg of 1·Ms (C27H30N6O3·1.06 CH3SO3H, purity=100%) of crystalline Form 2A in a 40 mL glass vial and blended thoroughly with a vortex mixer to afford Formulation 1, which has a theoretical composition as calculated in Table 1.
All samples were stored in a stability chamber at temperatures of −20° C., 50° C., and at 40° C./75% relative humidity for 2-week and 4-week periods and analyzed for stability. Closed-dish samples were capped and sealed with Parafilm. Open-dish samples were covered by aluminum foil that was pierced with a pinhole.
After reaching room temperature, each sample was added to a 40 mL sample vial containing 10 mL of diluent (0.05% TFA in H2O:MeCN=1:1 v/v) and sonicated for 10 minutes with occasional shaking. All samples were centrifuged at 14,000 rpm for 10 minutes and the supernatant was analyzed by HPLC. The working standard solution (5 mg of 1 Ms in 10 mL of diluent) was used as a reference. Results for Formulation 1 are shown in Table 3, in which purity is measured as percent (%) versus total related substances (TRS). As shown in […] and FIGS. 7 to 9, Formulation 1 was stable over an extended period.

[1] = 40° C. @ 75% relative humidity, 2 weeks
[2] = 40° C. @ 75% relative humidity, 4 weeks

For C=CC(=O)Nc1cc(Nc2nccc(-c3cn(C)c4ccccc34)n2)c(OC)cc1OCCN(C)C [1 · Ms, N-(2-(2-(Dimethylamino)ethoxy)-4-methoxy-5-((4-(1-methyl-1H-indol-3-yl)pyrimidin-2-yl)amino)phenyl)acrylamide methanesulfonate (1:1)], the Assay [1] was 101.1%, the “TRS (total related substances)” value [1] was 0.00% and the Assay [2] was 99.3%. For the same molecule, the “TRS (total related substances)” value [2] was 0.00%, the Assay (50° C., 2 weeks) was 101.4% and the “TRS (total related substances)” value (50° C., 2 weeks) was 0.00%. The Assay (50° C., 4 weeks) was 99.9%, the “TRS (total related substances)” value (50° C., 4 weeks) was 0.00% and the Assay (Initial) was 100.2%. The “TRS (total related substances)” value (Initial) was 0.00%.
